Counter-ions that a name gives are not always drawn.
Target: T1, rh beta tryptase (Homo sapiens, UniProt Q15661)
T1 construct: purchased Promega
Assay: tryptase inhibition in vitro test (cleavage of N-p-tosyl-Gly-Pro-Lys-para-nitroaniline, p-nitroaniline measured at 405 nm)
Format: biochemical
Conditions: rh beta tryptase 0.91 U/ml, substrate 0.6 mM, Tris HCl buffer with calcium and heparin, pH 7.4, 37° C., 5 minutes incubation; read-out: Tryptase-inhibiting activity
Procedure: The compounds according to the invention are characterised by their tryptase-inhibiting activity. This ability to inhibit tryptase was investigated using the test described below.
The measurement is carried out in Tris HCl buffer (100 mM), which additionally contains calcium (5 mM) and heparin ([…]), at pH 7.4. The standard used is rh beta tryptase which may be obtained commercially from Promega, for example. The substrate used is N-p-tosyl-Gly-Pro-Lys-para-nitroaniline in a concentration of 0.6 mM. The substrate is digested with tryptase to form p-nitroaniline which can be measured at 405 nm. Usually, an incubation period of 5 minutes and an incubation temperature of 37° C. are chosen. The enzyme activity used is 0.91 U/ml. The measurements are carried out in an Autoanalyser (Cobas Bio) made by Hofmann LaRoche. The potential inhibitory substances are used in concentrations of 10 μM in the screening, the inhibition of the tryptase being given in percent. The IC50 is determined at over 70% inhibition (concentration at which 50% of the enzyme activity is inhibited). After 5 minutes' pre-incubation of the potential inhibitory substances, the substrate is added to start the reaction, the formation of p-nitroaniline being taken as a measurement of the enzyme activity after 5 minutes, after testing the linearity.

T1 sequence (Q15661 31-275): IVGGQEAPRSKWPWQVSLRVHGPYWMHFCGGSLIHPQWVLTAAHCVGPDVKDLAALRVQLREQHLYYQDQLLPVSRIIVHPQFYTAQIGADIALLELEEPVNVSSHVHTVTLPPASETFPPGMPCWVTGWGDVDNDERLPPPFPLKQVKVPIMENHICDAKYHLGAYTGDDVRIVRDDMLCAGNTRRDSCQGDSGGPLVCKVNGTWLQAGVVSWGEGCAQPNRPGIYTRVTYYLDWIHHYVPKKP

| Compound | IC50 [nM] |
| --- | --- |
| CN(CCC(=O)O)C1CCN(CC(=O)N(Cc2cccc3ccccc23)c2ccc3c(c2)nc(CCc2ccc(C(=N)N)cc2)n3C)CC1 [Example 25, N-{2-[2-(4-Amidinophenyl)-ethyl]-1-methyl-benzimidazol-5-yl}-N-[naphth-1-ylmethyl]-2-[4-(N-methyl-N-propionic acid)-piperid-1-yl]-acetamide, diacetate] | 31 to 1000 |
| Cn1c(CCc2ccc(C(=N)N)cc2)nc2cc(N(Cc3cccc4ccccc34)C(=O)CN3CCC(Nc4ccc5ccccc5c4)CC3)ccc21 [Example 22, N-{2-[2-(4-Amidinophenyl)-ethyl]-1-methyl-benzimidazol-5-yl}-N-[naphth-1-ylmethyl]-2-[4-(2-naphthylamino)-piperid-1-yl]-acetamide, dihydrochloride] | 0.5 to 3 |
| Cn1c(CCc2ccc(C(=N)N)cc2)nc2cc(N(Cc3cccc4ccccc34)C(=O)CN3CCC(NC(=O)c4ccccc4)CC3)ccc21 [Example 8, N-{2-[2-(4-Amidinophenyl)-ethyl]-1-methyl-benzimidazol-5-yl}-N-[naphth-1-ylmethyl]-2-[4-benzoic acid amide-piperid-1-yl]-acetamide, dihydrochloride] | 4 to 30 |
| Cn1c(CCc2ccc(C(=N)N)cc2)nc2cc(N(Cc3cccc4ccccc34)C(=O)CN3CCC(Cc4ccccn4)CC3)ccc21 [Example 20, N-{2-[2-(4-Amidinophenyl)-ethyl]-1-methyl-benzimidazol-5-yl}-N-[naphth-1-ylmethyl]-2-[4-(2-pyridylmethyl)-piperid-1-yl]-acetamide, dihydrochloride] | 4 to 30 |
| Cn1c(CCc2ccc(C(=N)N)cc2)nc2cc(N(Cc3cccc4ccccc34)C(=O)CN3CCC(NC(=O)c4ccccn4)CC3)ccc21 [Example 7, N-{2-[2-(4-Amidinophenyl)-ethyl]-1-methyl-benzimidazol-5-yl}-N-[naphth-1-ylmethyl]-2-[4-(2-pyridylcarboxylic acid amide)-piperid-1-yl]-acetamide, dihydrochloride] | 4 to 30 |
| Cn1c(CCc2ccc(C(=N)N)cc2)nc2cc(N(Cc3cccc4ccccc34)C(=O)CN3CCC(C(=O)c4ccccc4)CC3)ccc21 [Example 24, N-{2-[2-(4-Amidinophenyl)-ethyl]-1-methyl-benzimidazol-5-yl}-N-[naphth-1-ylmethyl]-2-[4-(phenylcarbonyl)-piperid-1-yl]-acetamide, dihydrochloride] | 0.5 to 3 |
| Cn1c(CCc2ccc(C(=N)N)cc2)nc2cc(N(Cc3cccc4ccccc34)C(=O)NC3(Cc4ccccc4)CCNCC3)ccc21 [Example 77, N-{2-[2-(4-Amidinophenyl)-ethyl]-1-methyl-benzimidazol-5-yl}-N-[naphth-1-ylmethyl]-N′-[4-(benzyl)-piperidin-4-yl)-urea, hydrochloride] | 4 to 30 |
| CC(C)c1ccc(NC2CCN(CC(=O)N(C)c3ccc4c(c3)nc(CCc3ccc(C(=N)N)cc3)n4C)CC2)c(Br)c1 [Example 68, N-{2-[2-(4-Amidinophenyl)-ethyl]-1-methyl-benzimidazol-5-yl}-N-methyl-2-[4-(2-bromo-4-isopropylamino)-piperid-1-yl]-acetamide, dihydrochloride] | 31 to 1000 |
| Cn1c(CCc2ccc(C(=N)N)cc2)nc2cc(N(Cc3ccncc3)C(=O)CN3CCC(Nc4ccccc4)CC3)ccc21 [Example 45, N-{2-[2-(4-Amidinophenyl)-ethyl]-1-methyl-benzimidazol-5-yl}-N-[4-pyridylmethyl]-2-(4-phenylamino-piperid-1-yl)-acetamide, dihydrochloride] | 4 to 30 |
| CN(C(=O)CN1CCC(Nc2ccccc2F)CC1)c1ccc2c(c1)nc(CCc1ccc(C(=N)N)cc1)n2C [Example 36, N-{2-[2-(4-Amidinophenyl)-ethyl]-1-methyl-benzimidazol-5-yl}-N-methyl-2-[4-(2-fluorophenylamino)-piperid-1-yl]-acetamide, dihydrochloride] | 0.5 to 3 |
| Cn1c(CCc2ccc(C(=N)N)cc2)nc2cc(N(Cc3cccc(N)c3)C(=O)CN3CCC(Nc4ccccn4)CC3)ccc21 [Example 55, N-{2-[2-(4-Amidinophenyl)-ethyl]-1-methyl-benzimidazol-5-yl}-N-[3-aminophenyl-methyl]-2-[4-(2-pyridylamino)-piperid-1-yl]-acetamide, dihydrochloride] | 4 to 30 |
| Cn1c(CCc2ccc(C(=N)N)cc2)nc2cc(N(Cc3cccc4ccccc34)C(=O)CN3CCC(Nc4ccccc4)CC3)ccc21 [Example 1, N-{2-[2-(4-Amidinophenyl)-ethyl]-1-methyl-benzimidazol-5-yl}-N-[naphth-1-ylmethyl]-2-(4-phenylamino-piperid-1-yl)-acetamide, Dihydrochloride] | 4 to 30 |
| N-{2-[2-(4-Amidinophenyl)-ethyl]-1-methyl-benzimidazol-5- yl}-N-[ethanecarboxylic acid]-2-[4-(2-pyridylamino)-piperid- 1-yl]-acetamide, dihydrochloride [Example 54] | 4 to 30 |
| Cn1c(CCc2ccc(C(=N)N)cc2)nc2cc(N(Cc3cccc4ccccc34)C(=O)CN3CCC(Nc4ccccc4Cl)CC3)ccc21 [Example 12, N-{2-[2-(4-Amidinophenyl)-ethyl]-1-methyl-benzimidazol-5-yl}-N-[naphth-1-ylmethyl]-2-[4-(2-chlorophenylamino)-piperid-1-yl]-acetamide, dihydrochloride] | 0.5 to 3 |

Second part, the compound after the results:

| IC50 [nM] | Compound |
| --- | --- |
| 4 to 30 | Cn1c(CCc2ccc(C(=N)N)cc2)nc2cc(N(Cc3cccc4ccccc34)C(=O)CN3CCC(Oc4ccccn4)CC3)ccc21 [Example 16, N-{2-[2-(4-Amidinophenyl)-ethyl]-1-methyl-benzimidazol-5-yl}-N-[naphth-1-ylmethyl]-2-[4-(2-pyridinoxy)-piperid-1-yl]-acetamide, dihydrochloride] |
| 4 to 30 | Cn1c(CCc2ccc(C(=N)N)cc2)nc2cc(N(Cc3cccc4ccccc34)C(=O)CN3CCC(Cc4ccccc4)CC3)ccc21 [Example 9, N-{2-[2-(4-Amidinophenyl)-ethyl]-1-methyl-benzimidazol-5-yl}-N-[naphth-1-ylmethyl]-2-[4-(benzyl)-piperid-1-yl]-acetamide, dihydrochloride] |
| 4 to 30 | Cn1c(CCc2ccc(C(=N)N)cc2)nc2cc(N(Cc3cccc4ccccc34)C(=O)CN3CCC(N)CC3)ccc21 [Example 15, N-{2-[2-(4-Amidinophenyl)-ethyl]-1-methyl-benzimidazol-5-yl}-N-[naphth-1-ylmethyl]-2-[4-amino-piperid-1-yl]-acetamide, trihydrochloride] |
| 0.5 to 3 | CN(C(=O)CN1CCC(Nc2ccc(Br)cc2Cl)CC1)c1ccc2c(c1)nc(CCc1ccc(C(=N)N)cc1)n2C [Example 62, N-{2-[2-(4-Amidinophenyl)-ethyl]-1-methyl-benzimidazol-5-yl}-N-methyl-2-[4-(2-chloro-4-bromoamino)-piperid-1-yl]-acetamide, dihydrochloride] |
| 31 to 1000 | CN(C(=O)CN1CCC(Nc2ccccc2C(=N)N)CC1)c1ccc2c(c1)nc(CCc1ccc(C(=N)N)cc1)n2C [Example 40, N-{2-[2-(4-Amidinophenyl)-ethyl]-1-methyl-benzimidazol-5-yl}-N-methyl-2-[4-(2-amidinophenylamino)-piperid-1-yl]-acetamide, dihydrochloride] |
| 31 to 1000 | Cn1c(CCc2ccc(C(=N)N)cc2)nc2cc(N(Cc3cccc4ccccc34)C(=O)N3CCC(Nc4ccccn4)CC3)ccc21 [Example 79, N-{2-[2-(4-Amidinophenyl)-ethyl]-1-methyl-benzimidazol-5-yl}-N-[naphth-1-ylmethyl]-N′-[4-(2-pyridyl)-amino]-piperid-1-ine-urea, hydrochloride] |
| 0.5 to 3 | CN(C(=O)CN1CCC(Nc2ccc(Cl)c(Cl)c2)CC1)c1ccc2c(c1)nc(CCc1ccc(C(=N)N)cc1)n2C [Example 107, N-{2-[2-(4-Amidinophenyl)-ethyl]-1-methyl-benzimidazol-5-yl}-N-methyl-2-[4-(3,4-dichlorophenylamino)-piperid-1-yl]-acetamide, dihydrochloride] |
| 31 to 1000 | CN(C)CCCN(C)C(=O)Nc1ccc2c(c1)nc(CCc1ccc(C(=N)N)cc1)n2C [Example 81, N-{2-[2-(4-Amidinophenyl)-ethyl]-1-methyl-benzimidazol-5-yl}-N′-methyl-N′-(3-dimethylaminopropyl)-urea, hydrochloride] |
| 0.5 to 3 | Cn1c(CCc2ccc(C(=N)N)cc2)nc2cc(N(Cc3ccccc3)C(=O)CN3CCC(Nc4ccccc4Cl)CC3)ccc21 [Example 58, N-{2-[2-(4-Amidinophenyl)-ethyl]-1-methyl-benzimidazol-5-yl}-N-benzyl-2-[4-(2-chlorophenylamino)-piperid-1-yl]-acetamide, dihydrochloride] |
| 4 to 30 | CN(C)c1ccc(NC2CCN(CC(=O)N(Cc3cccc4ccccc34)c3ccc4c(c3)nc(CCc3ccc(C(=N)N)cc3)n4C)CC2)cc1 [Example 13, N-{2-[2-(4-Amidinophenyl)-ethyl]-1-methyl-benzimidazol-5-yl}-N-[naphth-1-ylmethyl]-2-[4-(4-dimethylaminophenyl-amino)-piperid-1-yl]-acetamide, trihydrochloride] |
| 4 to 30 | CN(C(=O)CN1CCC(N(C)c2ccc3ccccc3c2)CC1)c1ccc2c(c1)nc(CCc1ccc(C(=N)N)cc1)n2C [Example 34, N-{2-[2-(4-Amidinophenyl)-ethyl]-1-methyl-benzimidazol-5-yl}-N-methyl-2-[4-(2-naphthyl-N-methylamino)-piperid-1-yl]-acetamide, dihydrochloride] |

Reference: patent publication US6656956B2, “Benzimidazole derivatives, processes for preparing them and their use as pharmaceutical compositions” (Boehringer Ingelheim Pharma KG, priority 2001, dated 2003)
